Source: patent US20250197436A1, “GALACTOOLIGOSACCHARIDE COMPOSITION” (priority 2022, published 2025)

System: microbiota present in the faecal samples
Assay: Faecal fermentation, distribution of oligosaccharides (HPAEC-PAD peak areas)
From the text: HPAEC-PAD (high performance anion exchange chromatography) equipped with a PA-1 column was used for separation of mono- and oligosaccharides of the different samples. […] The samples as used for GPC were 100-fold diluted with DMSO before injection.
The distribution of oligosaccharides in the mixtures was also monitored over this time period using the method described above in relation to Table 2.

[1] = Comp. Ex. 1 sample, 6 h, Donor A
[2] = Comp. Ex. 1 sample, 6 h, Donor B
[3] = Comp. Ex. 1 sample, 6 h, Donor C
[4] = Comp. Ex. 1 sample, 24 h, Donor A
[5] = Comp. Ex. 1 sample, 24 h, Donor B
[6] = Comp. Ex. 1 sample, 24 h, Donor C
[7] = Comp. Ex. 1 sample, 48 h, Donor A
[8] = Comp. Ex. 1 sample, 48 h, Donor B
[9] = Comp. Ex. 1 sample, 48 h, Donor C
[10] = Example 2 sample, 24 h, Donor A
[11] = Example 2 sample, 24 h, Donor B
[12] = Example 2 sample, 24 h, Donor C
[13] = Example 2 sample, 48 h, Donor A
[14] = Example 2 sample, 48 h, Donor B
[15] = Example 2 sample, 48 h, Donor C

Row | Peak areas (Comp. Ex. 1 sample, 0 h) | Peak areas [1] | Peak areas [2] | Peak areas [3] | Peak areas [4] | Peak areas [5] | Peak areas [6] | Peak areas [7] | Peak areas [8] | Peak areas [9] | Peak areas (Example 2 sample, 0 h) | Peak areas (Example 2 sample, 6 h, Donor A) | Peak areas (Example 2 sample, 6 h, Donor B) | Peak areas (Example 2 sample, 6 h, Donor C) | Peak areas [10] | Peak areas [11] | Peak areas [12] | Peak areas [13] | Peak areas [14] | Peak areas [15] | SMILES
1 | 2.6 | 0.0 | 1.3 | 0.3 | 0.0 | 0.5 | 0.0 | 0.0 | 0.6 | 0.0 | 12.6 | 0.0 | 1.8 | 0.9 | 0.0 | 0.5 | 0.0 | 0.1 | 0.0 | 0.2 | OC[C@H]1O[C@@H](O[C@H]2[C@@H](O)[C@@H](CO)O[C@@H](O[C@H]3C(O)O[C@H](CO)[C@@H](O)[C@@H]3O)[C@@H]2O)[C@H](O)[C@@H](O)[C@H]1O (stereo partly drawn) [Cpd. ID 30, D-Gal-(β1-3)-D-Gal-(β1-2)-D-Glu]
2 | 0.8 | 0.0 | 0.5 | 0.3 | 0.5 | 0.5 | 0.0 | 0.0 | 0.4 | 0.0 |  | 0.0 | 2.0 | 0.3 | 0.2 | 0.3 | 0.0 | 0.0 | 0.0 | 0.0 | OC[C@H]1O[C@@H](O[C@H]2[C@@H](O)[C@@H](CO)O[C@@H](O[C@H]3[C@@H](O)[C@@H](CO)O[C@@H](O[C@H]4[C@H](O)[C@@H](O)C(O)O[C@@H]4CO)[C@@H]3O)[C@@H]2O)[C@H](O)[C@@H](O)[C@H]1O (stereo partly drawn) [Cpd. ID 31, D-Gal-(β1-3)-D-Gal-(β1-3)-D-Gal-(β1-4)-D-Glu]
3 | 4.7 | 0.1 | 2.0 | 1.0 | 0.2 | 0.4 | 0.0 | 0.0 | 0.3 | 0.0 | 12.8 | 1.1 | 2.0 | 0.4 | 0.0 | 0.0 | 0.0 | 0.1 | 0.4 | 0.1 | OC[C@H]1O[C@@H](O[C@H]2[C@@H](O)[C@@H](CO)O[C@@H](O[C@H]3[C@H](O)[C@@H](CO)OC(O)[C@@H]3O)[C@@H]2O)[C@H](O)[C@@H](O)[C@H]1O (stereo partly drawn) [Cpd. ID 29, D-Gal-(β1-3)-D-Gal-(β1-3)-D-Glu]
4 | 0.5 | 2.4 | 45.1 | 0.7 | 0.0 | 0.1 | 0.0 | 0.0 | 0.0 | 0.0 | 1.3 | 2.1 | 47.3 | 0.8 | 0.0 | 0.1 | 0.0 | 0.0 | 0.0 | 0.0 | O=C[C@H](O)[C@@H](O)[C@@H](O)[C@H](O)CO [Galactose]
5 | 19.5 | 2.9 | 34.1 | 0.2 | 0.0 | 0.1 | 0.0 | 0.0 | 0.0 | 0.0 | 17.5 | 2.6 | 26.9 | 0.3 | 0.0 | 0.0 | 0.0 | 0.0 | 0.0 | 0.0 | O=C[C@H](O)[C@@H](O)[C@H](O)[C@H](O)CO [Glucose]
6 | 27.6 | 1.9 | 5.7 | 1.6 | 1.9 | 2.0 | 0.7 | 0.0 | 1.9 | 0.2 | 20.4 | 3.2 | 4.5 | 1.6 | 1.2 | 1.7 | 0.5 | 0.3 | 2.6 | 0.6 | OC[C@H]1O[C@@H](O[C@@H]2[C@H](O)[C@@H](O)[C@H](O[C@H]3[C@H](O)[C@@H](O)C(O)O[C@@H]3CO)O[C@@H]2CO)[C@H](O)[C@@H](O)[C@H]1O (stereo partly drawn) [Cpd. ID 11, D-Gal-(β1-4)-D-Gal-(β1-4)-D-Glu]
7 | 16.2 | 0.0 | 0.0 | 0.0 | 0.0 | 0.0 | 0.0 | 0.0 | 0.0 | 0.0 | 24 | 1.3 | 0.0 | 0.0 | 0.0 | 0.0 | 0.0 | 0.0 | 0.0 | 0.0 | OC[C@H]1O[C@@H](OC[C@H]2OC(O)[C@H](O)[C@@H](O)[C@@H]2O)[C@H](O)[C@@H](O)[C@H]1O (some centres unmarked) [Allolactos, Allolactose]
8 | 1.4 | 1.4 | 0.8 | 0.9 | 0.4 | 0.4 | 0.4 | 0.1 | 1.1 | 0.1 | 28.9 | 1.1 | 5.4 | 1.2 | 0.4 | 0.7 | 0.3 | 0.3 | 0.7 | 0.2 | OC[C@H]1O[C@@H](O[C@H]2[C@@H](O)[C@@H](CO)O[C@@H](O[C@H]3[C@H](O)[C@@H](O)C(O)O[C@@H]3CO)[C@@H]2O)[C@H](O)[C@@H](O)[C@H]1O (stereo partly drawn) [Cpd. ID 12, D-Gal-(β1-3)-D-Gal-(β1-4)-D-Glu]

Row | SMILES | Peak areas (Comp. Ex. 1 sample, 0 h) | Peak areas [1] | Peak areas [2] | Peak areas [3] | Peak areas [4] | Peak areas [5] | Peak areas [6] | Peak areas [7] | Peak areas [8] | Peak areas [9] | Peak areas (Example 2 sample, 0 h) | Peak areas (Example 2 sample, 6 h, Donor A) | Peak areas (Example 2 sample, 6 h, Donor B) | Peak areas (Example 2 sample, 6 h, Donor C) | Peak areas [10] | Peak areas [11] | Peak areas [12] | Peak areas [13] | Peak areas [14] | Peak areas [15]
9 | OC[C@H]1O[C@@H](O[C@H]2[C@H](O)[C@@H](O)C(O)O[C@@H]2CO)[C@H](O)[C@@H](O)[C@H]1O (some centres unmarked) [Lactose] | 48.4 | 0.7 | 1.9 | 0.4 | 0.4 | 0.5 | 0.4 | 0.3 | 0.5 | 0.3 | 30.9 | 0.3 | 5.3 | 0.6 | 0.3 | 0.4 | 0.4 | 0.3 | 0.5 | 0.3
